In patent US20090036449A1, “Indazolesquaric Acid Derivatives as Chk1, Chk2 and Sgk Inhibitors” (priority 2005, published 2009):

Each compound was assayed against T1, SGK1 protein kinase (Homo sapiens, UniProt O00141) (assay: SGK inhibition (filter binding method, analogously to CHK1, CHK2)).
T1 sequence (O00141 1-431): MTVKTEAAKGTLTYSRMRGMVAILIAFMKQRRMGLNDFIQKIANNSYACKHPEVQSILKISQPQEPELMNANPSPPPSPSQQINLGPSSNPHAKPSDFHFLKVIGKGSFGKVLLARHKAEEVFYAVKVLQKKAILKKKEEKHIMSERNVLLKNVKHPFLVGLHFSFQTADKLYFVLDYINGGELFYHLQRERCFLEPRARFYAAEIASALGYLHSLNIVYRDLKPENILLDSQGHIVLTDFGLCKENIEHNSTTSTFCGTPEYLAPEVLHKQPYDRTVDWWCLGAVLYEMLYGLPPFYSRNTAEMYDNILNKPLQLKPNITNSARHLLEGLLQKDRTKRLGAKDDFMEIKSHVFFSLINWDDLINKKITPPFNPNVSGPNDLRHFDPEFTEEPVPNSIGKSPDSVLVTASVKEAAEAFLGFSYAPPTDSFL
Format: biochemical
Method: (§1) 5-20 mU of CHK1 kinase (diluted in 20 mM MOPS pH7.5, 1 mM EDTA, 0.1% β-mercaptoethanol, 0.01% Brij-35, 5% glycerol, 1 mg/ml of BSA) are incubated for 30 min at room temperature in the presence of 30-200 μM CHKtide in 25.5 μl in 1-fold reaction buffer (8 mM MOPS pH7, 0.2 mM EDTA, 10 mM magnesium acetate, 0.02 mM ^33P-ATP [500-1000 cpm/pmol]). The reaction is stopped using 5 μl of 0.5 M ortho-phosphoric acid and filtered through P81 filter plates. After the filter plates have been washed a number of times, the bound radioactivity is determined in a scintillation counter.
as §1, with “CHK2” for “CHK1”, “CHKtide ([…])” for “CHKtide”
The inhibition of SGK1 protein kinase can be determined in the filter binding method (analogously to CHK1, CHK2).

Row | IC50 [nM] | Compound
1 | 10 | O=C(Nc1n[nH]c2ccc(Nc3c(NCc4cccc(O)c4)c(=O)c3=O)cc12)c1ccccc1 [Compound 40, 3-(3-benzoylamino-1H-indazol-5-ylamino)-4-(3-hydroxybenzylamino)cyclobut-3-ene-1,2-dione]
2 | 61.5 | COc1cccc(CNc2c(Nc3ccc4[nH]nc(NC(=O)c5ccccc5)c4c3)c(=O)c2=O)c1 [Compound 41, 3-(3-benzoylamino-1H-indazol-5-ylamino)-4-(3-methoxybenzylamino)cyclobut-3-ene-1,2-dione]
3 | 10 | COc1cccc([C@@H](C)Nc2c(Nc3ccc4[nH]nc(NC(=O)c5ccccc5)c4c3)c(=O)c2=O)c1 [Compound 42, 3-(3-benzoylamino-1H-indazol-5-ylamino)-4-[(R)-1-(3-methoxyphenyl)ethylamino]cyclobut-3-ene-1,2-dione]
